This note sets out measurements from ChEMBL document CHEMBL1121781, “Potential antitumor agents. 34. Quantitative relationships between DNA binding and molecular structure for 9-anilinoacridines substituted in the anilino ring” (J Med Chem, 1981).

The structures appear in SMILES notation. Activity calls are given as the source filed them. No cut-off for these calls is given here.

Data set [1] relates to Nucleic Acid.
Description: Association constant for binding to poly [d(G-C)]
Data set [2] relates to Calf thymus DNA. As to conditions: Bos taurus.
Description: (§1) Inhibitory concentration against ethidium binding to DNA
Data set [3] relates to Nucleic Acid. The source holds these as a separate data set.
Description: Association constant for binding to poly [d(A-T)]
Data set [4] deals with Calf thymus DNA. The settings on record: Bos taurus. This is another data set of the same source.
Description: as §1

Description for Mus musculus: Maximum percent increase in life span of mice
Description for physchem: Ionisation constant (pKa)

For `Cc1ccccc1Nc1c2ccccc2nc2ccccc12`, in the data set “physchem”, the pKa (as a rule, the pH at which an ionisable group is half protonated) worked out at 7.76. The Log K in the data set with Nucleic Acid [1] was 5.23; in the data set with Nucleic Acid [3], 5.25. Besides, the C50 in the data set on Calf thymus DNA [2] was found to be 67 µM.

Consider `CN(c1ccccc1Nc1c2ccccc2nc2ccccc12)S(C)(=O)=O`, for which the pKa in the data set “physchem” came out at 6.97. Besides, the values for the Log K in the data set with Nucleic Acid [1] and in the data set on Nucleic Acid [3] were 5.46 and 5.08, respectively. The compound also had a C50 with Calf thymus DNA [4] of 37 µM. Also, the ILS entry in the data set filed under Mus musculus is “inactive”.

For the compound `COC(=O)Nc1ccccc1Nc1c2ccccc2nc2ccccc12`, in the data set “physchem”, the pKa stood at 7.24. The Log K turned out to be 5.78 with Nucleic Acid [1] and 5.56 in the data set with Nucleic Acid [3]. In the data set with Calf thymus DNA [4], this compound registered a C50 of 17 µM. In the data set filed under Mus musculus, the ILS entry was “inactive”.

For `CC(C)c1ccccc1Nc1c2ccccc2nc2ccccc12`, the pKa in “physchem” stood at 7.64. Besides, the Log K in the data set on Nucleic Acid [1] was determined as 4.92; in the data set with Nucleic Acid [3], 5.08. This compound gave a C50 in the data set with Calf thymus DNA [4] of 142 µM. The ILS entry in the data set listed under Mus musculus was “inactive”.

`CS(=O)(=O)NCc1ccccc1Nc1c2ccccc2nc2ccccc12`: the pKa in the data set “physchem” was 7.17. Besides, the Log K with Nucleic Acid [1] was 5.39; with Nucleic Acid [3], 5.6. Besides, in the data set on Calf thymus DNA [4], the C50 was 46 µM. Further, the ILS entry in the data set listed under Mus musculus is “inactive”.

`CCCCCCNc1ccc(Nc2c3ccccc3nc3ccccc23)cc1`: the pKa in the data set “physchem” was found to be 8.24. For the same compound, the figures for the Log K with Nucleic Acid [1] and with Nucleic Acid [3] were 6.38 and 6.43, respectively. The C50 with Calf thymus DNA [4] was found to be 1.6 µM. Besides, in the data set listed under Mus musculus, the ILS result is “inactive”.

Compound `Brc1ccccc1Nc1c2ccccc2nc2ccccc12` had a pKa in the data set “physchem” of 6.41. Further, the Log K was found to be 5.32 in the data set on Nucleic Acid [1] and 5.35 with Nucleic Acid [3]. In the data set with Calf thymus DNA [4], this compound registered a C50 of 58 µM. Besides, the ILS entry in the data set filed under Mus musculus is “inactive”.

Take `CC(=O)c1ccc(Nc2c3ccccc3nc3ccccc23)cc1`: the pKa in the data set “physchem” was 6.12. Further, the values for the Log K in the data set with Nucleic Acid [1] and with Nucleic Acid [3] were 5.89 and 5.87, respectively. This compound showed a C50 with Calf thymus DNA [4] of 14 µM. For the same compound, the ILS result in the data set filed under Mus musculus was “inactive”.

In “physchem”, `CS(=O)(=O)c1ccc(Nc2c3ccccc3nc3ccccc23)cc1` displayed a pKa of 5.81. Besides, the Log K in the data set on Nucleic Acid [1] worked out at 5.88; in the data set with Nucleic Acid [3] it was 5.86. This compound also yielded a C50 with Calf thymus DNA [4] of 14 µM. In addition, the ILS result in the data set listed under Mus musculus was “inactive”.

`c1ccc(Nc2c3ccccc3nc3ccccc23)cc1`: the pKa in “physchem” is 7.46. For the same compound, the Log K stood at 5.85 in the data set on Nucleic Acid [1] and 5.86 in the data set with Nucleic Acid [3]. The C50 with Calf thymus DNA [4] was 16 µM. In the data set listed under Mus musculus, the ILS entry is “inactive”.

`CS(=O)(=O)Nc1ccccc1Nc1c2ccccc2nc2ccccc12`: the pKa in the data set “physchem” was determined as 6.86. Further, the figures for the Log K with Nucleic Acid [1] and in the data set on Nucleic Acid [3] were 6.1 and 5.49, respectively. In the data set on Calf thymus DNA [4], this compound yielded a C50 of 7.3 µM. Also, in the data set filed under Mus musculus, the ILS entry is “inactive”.

For the compound `CC(C)(C)c1ccccc1Nc1c2ccccc2nc2ccccc12`, the pKa in “physchem” was 7.62. The Log K is 5.09 with Nucleic Acid [1] and 5.23 with Nucleic Acid [3]. This compound had a C50 in the data set on Calf thymus DNA [4] of 100 µM. In the data set filed under Mus musculus, the ILS result was “inactive”.

In “physchem”, `CCOc1ccccc1Nc1c2ccccc2nc2ccccc12` had a pKa of 7.85. Further, the Log K worked out at 5.08 in the data set with Nucleic Acid [1] and 5.2 in the data set on Nucleic Acid [3]. This compound yielded a C50 in the data set on Calf thymus DNA [4] of 85 µM. For the same compound, the ILS result in the data set filed under Mus musculus was “inactive”.

On to `Oc1cccc(Nc2c3ccccc3nc3ccccc23)c1`, for which the pKa in “physchem” amounted to 7.3. For the same compound, the Log K in the data set with Nucleic Acid [1] came to 6.1; with Nucleic Acid [3], 6. The compound also returned a C50 in the data set on Calf thymus DNA [4] of 8.2 µM. Besides, the ILS result in the data set filed under Mus musculus was “inactive”.

Turning to `c1cncc(Nc2c3ccccc3nc3ccccc23)c1`, in the data set “physchem”, the pKa came out at 6.46. In addition, the Log K came to 5.96 in the data set on Nucleic Acid [1] and 5.75 in the data set with Nucleic Acid [3]. Moreover, the C50 in the data set on Calf thymus DNA [4] was determined as 13 µM. Moreover, the ILS result in the data set filed under Mus musculus was “inactive”.

For the compound `Brc1ccc(Nc2c3ccccc3nc3ccccc23)cc1`, in “physchem”, the pKa worked out at 7. For the same compound, the Log K in the data set with Nucleic Acid [1] was found to be 5.98; in the data set with Nucleic Acid [3] it was 6.02. This compound also yielded a C50 in the data set with Calf thymus DNA [4] of 11 µM. For the same compound, in the data set filed under Mus musculus, the ILS result is “inactive”.

In turn, `Clc1ccccc1Nc1c2ccccc2nc2ccccc12` gave a pKa in the data set “physchem” of 6.55. The values for the Log K in the data set on Nucleic Acid [1] and with Nucleic Acid [3] were 5.47 and 5.39, respectively. Also, the C50 in the data set with Calf thymus DNA [4] worked out at 41 µM. In addition, in the data set filed under Mus musculus, the ILS result is “inactive”.

The compound `Nc1ccccc1Nc1c2ccccc2nc2ccccc12` came in with a pKa in the data set “physchem” of 7.87. The Log K with Nucleic Acid [1] and with Nucleic Acid [3] was 5.76 each time. Besides, the C50 in the data set with Calf thymus DNA [4] is 13 µM. In the data set listed under Mus musculus, the ILS result is “inactive”.
